Source: patent US9266867B2, “Piperidinyl monocarboxylic acids as S1P1 receptor agonists” (BIOPROJET, priority 2011, dated 2016)
Structures can show the parent of a compound that is named as a salt. Where two headings read alike, the source gives them in different places.

What was measured:
EDG-1 = EDG-1 (Homo sapiens, UniProt P21453); test: 35S-GTPγS binding assay, EDG1 (S1P1); assay type: biochemical; design: expressed in transfected cells; conditions: read-out: EDG1 EC50
Protocol: a) 35S-GTPγS Binding Assay GTP-γ-^35S binding was performed using […]15 μg protein of cell membranes suspended in 50 mM tris-HCl pH 7.5 containing 10 mM MgCl2, 100 mM NaCl and 10 μM GDP. The radioligand was 0.025 nM [^35S] GTP-γ-S and non specific binding determined in the presence of 10 μM non-radioactive GTP-γ-S. […] The maximal stimulation elicited by S1P was taken as a reference to define full or partial agonism and calculate the intrinsic activity (i.a.) of compounds.

circulating lymphocytes = test: Assessment of lymphopenia in rats; assay type: in vivo; conditions: 1 mpk p.o.
Protocol: b) Assessment of Lymphopenia
Lymphopenia was assessed in vivo. Experiments were done in non-fasted/fasted Swiss mice and/or: Sprague Dawley rats, Wistar rats, Beagle dogs, Cynomolgus monkeys. Compounds were administered orally in suspension in carboxymethyl-cellulose 0.5-1% in water (W/V). Blood was taken on anesthetized/non anaesthetized animal (4% isoflurane) and samples collected in EDTA-containing vacuum tubes from 1 h 30 to 72 hours post administration for lymphopenia measurement.
After 10 minutes stirring, cells were counted using ABC Vet haemocytometer (Scil vet animal Care) for rodent and dog or ADVIA 120 hematology analyzer for monkeys. Pharmacodynamic effect was measured by the decrease in circulating lymphocytes by test item treatment in comparison with haematological parameters of control animals or versus predosing in the same animals.

EDG-1, sequence (P21453 whole entry): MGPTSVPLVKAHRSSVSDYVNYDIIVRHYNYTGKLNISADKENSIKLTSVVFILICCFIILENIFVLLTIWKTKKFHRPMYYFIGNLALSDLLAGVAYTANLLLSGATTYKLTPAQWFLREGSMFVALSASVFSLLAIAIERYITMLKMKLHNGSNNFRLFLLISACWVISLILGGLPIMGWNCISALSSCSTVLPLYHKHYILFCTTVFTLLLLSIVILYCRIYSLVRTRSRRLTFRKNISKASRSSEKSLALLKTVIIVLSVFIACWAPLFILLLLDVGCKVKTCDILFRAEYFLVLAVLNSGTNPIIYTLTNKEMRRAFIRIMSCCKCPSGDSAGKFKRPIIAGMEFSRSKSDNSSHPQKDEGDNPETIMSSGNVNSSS

Row | SMILES | EC50 (EDG-1; Table 1b) [nM] | other results
1 | CC(C)Oc1ccc(-c2nc(-c3ccc(CN4CCC(C)(C(=O)O)CC4)cc3)no2)cc1Cl [Example 44, 1-{4-[5-(3-Chloro-4-isopropoxy-phenyl)-[1,2,4]-oxadiazol-3-yl]-benzyl}-4-methyl-piperidine-4-carboxylic acid tert-butyl amine salt] | < 10 | 
2 | CC1(C(=O)O)CCN(Cc2ccc(-c3noc(-c4ccc(C(C)(C)C)c(Cl)c4)n3)cc2)CC1 [Example 45, 1-{4-[5-(4-tert-Butyl-3-chloro-phenyl)-[1,2,4]-oxadiazol-3-yl]-benzyl}-4-methyl-piperidine-4-carboxylic acid tert-butyl amine salt] | < 10 | 
3 | CCC1(C(=O)O)CCN(Cc2ccc(-c3noc(-c4ccc(OC(C)C)c(Cl)c4)n3)cc2)CC1 [Example 48, 1-{4-[5-(3-Chloro-4-isopropoxy-phenyl)-[1,2,4]-oxadiazol-3-yl]-benzyl}-4-ethyl-piperidine-4-carboxylic acid tert-butyl amine salt] | < 10 | 
4 | O=C(O)C1(Cc2ccccn2)CCN(Cc2ccc(-c3noc(-c4ccc(C5CCCCC5)c(Cl)c4)n3)cc2)CC1 [Example 56, 1-{4-[5-(3-Chloro-4-cyclohexyl-phenyl)-[1,2,4]-oxadiazol-3-yl]-benzyl}-4-pyridin-2-ylmethyl-piperidine-4-carboxylic acid tert-butyl amine salt] | < 1 | 
5 | COCC1(C(=O)O)CCN(Cc2ccc(-c3noc(-c4ccc(OC(C)C)c(Cl)c4)n3)cc2)CC1 [Example 57, 1-{4-[5-(3-Chloro-4-isopropoxy-phenyl)-[1,2,4]-oxadiazol-3-yl]-benzyl}-4-methoxymethyl-piperidine-4-carboxylic acid tert-butyl amine salt] | < 10 | 
6 | O=C(O)C1(Cc2cccnc2)CCN(Cc2ccc(-c3noc(-c4ccc(-c5ccccc5)c(Cl)c4)n3)cc2)CC1 [Example 58, 1-{4-[5-(2-Chloro-biphenyl-4-yl)-[1,2,4]-oxadiazol-3-yl]-benzyl}-4-pyridin-3-ylmethyl-piperidine-4-carboxylic acid tert-butyl amine salt] | < 1 | 
7 | CCOCCOCC1(C(=O)O)CCN(Cc2ccc(-c3noc(-c4ccc(CC(C)C)c(Cl)c4)n3)cc2)CC1 [Example 59, 1-{4-[5-(3-Chloro-4-isobutyl-phenyl)-[1,2,4]-oxadiazol-3-yl]-benzyl}-4-(2-ethoxy-ethoxymethyl)-piperidine-4-carboxylic acid tert-butyl amine salt] | < 1 | 
8 | CC(C)Cc1ccc(-c2nc(-c3ccc(CN4CCC(COC(C)C)(C(=O)O)CC4)cc3)no2)cc1Cl [Example 60, 1-{4-[5-(3-Chloro-4-isobutyl-phenyl)-[1,2,4]-oxadiazol-3-yl]-benzyl}-4-isopropoxy methyl-piperidine-4-carboxylic acid tert-butyl amine salt] | < 1 | 
9 | CC(C)Cc1ccc(-c2nc(-c3ccc(CN4CCC(COC5CCCC5)(C(=O)O)CC4)cc3)no2)cc1Cl [Example 61, 1-{4-[5-(3-Chloro-4-isobutyl-phenyl)-[1,2,4]-oxadiazol-3-yl]-benzyl}-4-cyclopentyloxymethyl-piperidine-4-carboxylic acid tert-butyl amine salt] | < 1 | 
10 | CC(C)Cc1ccc(-c2nc(-c3ccc(CN4CCC(Cc5cccs5)(C(=O)O)CC4)cc3)no2)cc1Cl [Example 62, 1-{4-[5-(3-Chloro-4-isobutyl-phenyl)-[1,2,4]-oxadiazol-3-yl]-benzyl}-4-thiophen-2-ylmethyl-piperidine-4-carboxylic acid tert-butyl amine salt] | < 1 | 
11 | CC(C)Cc1ccc(-c2nc(-c3ccc(CN4CCC(CC5CC5)(C(=O)O)CC4)cc3)no2)cc1Cl [Example 63, 1-{4-[5-(3-Chloro-4-isobutyl-phenyl)-[1,2,4]-oxadiazol-3-yl]-benzyl}-4-cyclopropylmethyl-piperidine-4-carboxylic acid tert-butyl amine salt] | < 1 | 
12 | CC(C)Cc1ccc(-c2nc(-c3ccc(CN4CCC(CCN5CCOCC5)(C(=O)O)CC4)cc3)no2)cc1Cl [Example 64, 1-{4-[5-(3-Chloro-4-isobutyl-phenyl)-[1,2,4]-oxadiazol-3-yl]-benzyl}-4-(2-morpholin-4-yl-ethyl)-piperidine-4-carboxylic acid] | < 10 | 
13 | CC(C)Cc1ccc(-c2nc(-c3ccc(CN4CCC(CCCN5CCCCC5)(C(=O)O)CC4)cc3)no2)cc1Cl [Example 65, 1-{4-[5-(3-Chloro-4-isobutyl-phenyl)-[1,2,4]-oxadiazol-3-yl]-benzyl}-4-(3-piperidin-1-yl-propyl)-piperidine-4-carboxylic acid tert-butyl amine salt] | < 10 | 
14 | CC(C)Cc1ccc(-c2nc(-c3ccc(CN4CCC(CCCN5CCCC5)(C(=O)O)CC4)cc3)no2)cc1Cl [Example 66, 1-{4-[5-(3-Chloro-4-isobutyl-phenyl)-[1,2,4]-oxadiazol-3-yl]-benzyl}-4-(3-pyrrolidin-1-yl-propyl)-piperidine-4-carboxylic acid tert-butyl amine salt] | < 10 | 
15 | O=C(O)C1CCN(Cc2ccc(-c3noc(-c4ccc(-c5ccccc5)c(F)c4)n3)cc2)CC1 [compound 1] |  | Lymphopenia in rats % lymphopenia at 1 mpk/p.o dose 8 Hrs (circulating lymphocytes): 18%; Lymphopenia in rats % lymphopenia at 1 mpk/p.o dose 24 Hrs (circulating lymphocytes): −54%; EC50 (EDG-1; comparative examples table): 11.7 to 19.8 nM
16 | CC(C)Cc1ccc(-c2nc(-c3ccc(CN4CCC(C(=O)O)CC4)cc3)no2)cc1.Cl [compound 2] |  | Lymphopenia in rats % lymphopenia at 1 mpk/p.o dose 8 Hrs (circulating lymphocytes): −25%; Lymphopenia in rats % lymphopenia at 1 mpk/p.o dose 24 Hrs (circulating lymphocytes): −101%; EC50 (EDG-1; comparative examples table): 57.2 nM
17 | CC(C)Cc1ccc(-c2nc(-c3ccc(CN4CCC[C@@H](C(=O)O)C4)cc3)no2)cc1 [compound 3] |  | Lymphopenia in rats % lymphopenia at 1 mpk/p.o dose 8 Hrs (circulating lymphocytes): −24%; Lymphopenia in rats % lymphopenia at 1 mpk/p.o dose 24 Hrs (circulating lymphocytes): −58%; EC50 (EDG-1; comparative examples table): 56.6 nM
18 | Cl.O=C(O)C1CCN(Cc2ccc(-c3noc(-c4ccc(C5CCCCC5)cc4)n3)cc2)CC1 [compound 4] |  | Lymphopenia in rats % lymphopenia at 1 mpk/p.o dose 8 Hrs (circulating lymphocytes): 2%; Lymphopenia in rats % lymphopenia at 1 mpk/p.o dose 24 Hrs (circulating lymphocytes): −57%; EC50 (EDG-1; comparative examples table): 13.9 nM

Further lines, with some results ahead:

Row | EC50 (EDG-1; Table 1b) [nM] | SMILES | other results
19 | < 1 | CCCc1ccc(-c2nc(-c3ccc(CN4CCC(C)(C(=O)O)CC4)cc3)no2)cc1Cl [Example 46, 1-{4-[5-(3-Chloro-4-propyl-phenyl)-[1,2,4]-oxadiazol-3-yl]-benzyl}-4-methyl-piperidine-4-carboxylic acid tert-butyl amine salt] | 
20 | < 1 | COCCOCC1(C(=O)O)CCN(Cc2ccc(-c3noc(-c4ccc(OC(C)C)c(Cl)c4)n3)cc2)CC1 [Example 47, 1-{4-[5-(3-Chloro-4-isopropoxy-phenyl)-[1,2,4]-oxadiazol-3-yl]-benzyl}-4-(2-methoxy-ethoxymethyl)-piperidine-4-carboxylic acid tert-butyl amine salt] | 
21 | < 1 | C=CCC1(C(=O)O)CCN(Cc2ccc(-c3noc(-c4ccc(OC(C)C)c(Cl)c4)n3)cc2)CC1 [Example 49, 4-Allyl-1-{4-[5-(3-chloro-4-isopropoxy-phenyl)-[1,2,4]-oxadiazol-3-yl]-benzyl}-piperidine-4-carboxylic acid tert-butyl amine salt] | 
22 | < 1 | O=C(O)C1(Cc2ccccn2)CCN(Cc2ccc(-c3noc(-c4ccc(-c5ccccc5)c(Cl)c4)n3)cc2)CC1 [Example 50, 1-{4-[5-(2-Chloro-biphenyl-4-yl)-[1,2,4]-oxadiazol-3-yl]-benzyl}-4-pyridin-2-ylmethyl-piperidine-4-carboxylic acid tert-butyl amine salt] | 
23 | < 1 | COc1ccc(CC2(C(=O)O)CCN(Cc3ccc(-c4noc(-c5ccc(-c6ccccc6)c(Cl)c5)n4)cc3)CC2)cc1 [Example 51, 1-{4-[5-(2-Chloro-biphenyl-4-yl)-[1,2,4]-oxadiazol-3-yl]-benzyl}-4-(4-methoxy-benzyl)-piperidine-4-carboxylic acid tert-butyl amine salt] | 
24 | < 1 | O=C(O)C1(Cc2ccc(F)cc2)CCN(Cc2ccc(-c3noc(-c4ccc(-c5ccccc5)c(Cl)c4)n3)cc2)CC1 [Example 52, 1-{4-[5-(2-Chloro-biphenyl-4-yl)-[1,2,4]-oxadiazol-3-yl]-benzyl}-4-(4-fluoro-benzyl)-piperidine-4-carboxylic acid tert-butyl amine salt] | 
25 | < 1 | COc1ccc(CC2(C(=O)O)CCN(Cc3ccc(-c4noc(-c5ccc(C6CCCCC6)c(Cl)c5)n4)cc3)CC2)cc1 [Example 53, 1-{4-[5-(3-Chloro-4-cyclohexylphenyl)-[1,2,4]-oxadiazol-3-yl]-benzyl}-4-(4-methoxy-benzyl)-piperidine-4-carboxylic acid tert-butyl amine salt] | 
26 | < 1 | CCC1(C(=O)O)CCN(Cc2ccc(-c3noc(-c4ccc(C5CCCCC5)c(Cl)c4)n3)cc2)CC1 [Example 54, 1-{4-[5-(3-Chloro-4-cyclohexylphenyl)-[1,2,4]-oxadiazol-3-yl]-benzyl}-4-ethyl-piperidine-4-carboxylic acid tert-butyl amine salt] | 
27 | < 1 | O=C(O)C1(Cc2ccccc2)CCN(Cc2ccc(-c3noc(-c4ccc(-c5ccccc5)c(Cl)c4)n3)cc2)CC1 [Example 55, 4-Benzyl-1-{4-[5-(2-chloro-biphenyl-4-yl)-[1,2,4]-oxadiazol-3-yl]-benzyl}-piperidine-4-carboxylic acid tert-butyl amine salt] | 
